Data as given in US7872133B2, “Tricyclic heterocycle compound” (Ono Pharmaceutical Co., Ltd., priority 2003, dated 2011).

How the values were obtained:
MBR = target: T1, MBR (Rattus norvegicus, UniProt P16257); test: Receptor Binding Experiment (competition with [3H]PK11195); conditions: rat brain membrane preparation, [3H]PK11195 as MBR selective ligand; Ki by Cheng and Prusoff formula
T1 construct: from tissue; host or cells: whole brain without cerebellum of male Wistar rats, crude membrane preparation
Description: The affinity of the compounds in the present invention to MBR was determined using rat brain membrane preparation. In addition, the measurement in the present invention was improved the accuracy of measurement and the sensitivity of measurement for evaluating the compounds in the present invention as follows. After male Wister rats were decapitated to extirpate the whole brain and cerebellums were removed. They were homogenized in ice-cold 50 mmol/L Tris-HCL buffer solution (pH7.4), centrifuged and the obtained pellets were washed. The pellets resuspended and adjusted to about 1 mg/mL were used as rat brain membrane preparations for binding assay. The binding assay were experimented using [^3H]PK11195 as a MBR selective ligand. […]
To determine the amount of total binding in saturation binding experiment, membrane preparations, various concentrations of [^3H]PK11195, final concentration: 0.5 vol % dimethylsulfoxide (DMSO) and 50 mmol/L Tris-HCL buffer solution (pH7.4) were mixed (total volume 200 μL) and were incubated for 1 hour at room temperature. […] The filter was dried and then the radioactivity on the filter was measured by liquid scintillation counter. The data obtained by the binding experiments were Scatchard-analyzed using analysis software, KELL (Ver. 6, BIOSOFT) and the dissociation constant (KD value) was determined. […]

male Wistar rats = test: Evaluation of Anti-Stress Effects (psychological stress, number of defecation); format: in vivo, rat; conditions: 10 mg/kg orally 30 minutes before stressor; counted 1 hour later; media treated group average 8.0 feces
Description: Psychological stress was loaded to male Wistar rats (Brain Research, 641, 21-28, 1994). Water was stored up to the depth of about 10 cm in a container where the platform was set at the center. A stressor began to load to rats 30 minutes after the vehicle or the compound in the present invention (the compound of Example 17) were orally administered by dosage of 10 mg/kg. The number of defecation was counted 1 hour later (10 per each group). Rats without administration and load of stressor rarely defecated for 1 hour. In contrast, remarkable defecation was admitted in media treated group (average 8.0 feces) loaded by stressor. […] The results clarified that the compounds in the present invention had anti-stress effects.

Ki (MBR): 0.021 µM
SMILES: CC(=O)N1CC2(CC2)c2c([nH]c3ccccc23)C1c1cccc(F)c1 (stereo not drawn) [Example 17, 2-acetyl-1-(3-fluorophenyl)-1,2,3,9-tetrahydrospiro[β-carboline-4,1′-cyclopropane]]
number of defecation (average) (male Wistar rats): 5.4 feces
